Here are results for one compound from US6355655B1, “Heterocyclic sulphonamide derivatives” (Eli Lilly and Company, priority 1998, dated 2002).

Structures are written as SMILES.

The target in this assay is T1, human GluR4B receptor (Homo sapiens, UniProt P48058).
T1 construct: expressed in transfected cells
Nature of the assay: Potentiation of agonist-induced excitability of human GluR4B receptor expressed in HEK 293 cells. The class given is cell-based. An excerpt: The ability of compounds of formula I to potentiate glutamate receptor-mediated response may be determined using fluorescent calcium indicator dyes (Molecular Probes, Eugene, Oreg., Fluo-3) and by measuring glutamate-evoked efflux of calcium into GluR4 transfected HEK293 cells, as described in more detail below.
In one test, 96 well plates containing confluent monolayers of HEK cells stably expressing human GluR4B (obtained as described in European Patent Application Publication Number EP-A1-583917) are prepared. The tissue culture medium in the wells is then discarded, and the wells are each washed once with 200 μl of buffer (glucose, 10 mM, sodium chloride, 138 mM, magnesium chloride, 1 mM, potassium chloride, 5 mM, calcium chloride, 5 mM, N-[2-hydroxyethyl]-piperazine-N-[2-ethanesulfonic acid], 10 mM, to pH 7.1 to 7.3). […]
Each test is then performed as follows. […] A second fluorescent reading is taken after 5 minutes incubation. 15 μl of 400 μM glutamate solution is then added to each well (final glutamate concentration 100 μM), and a third reading is taken. The activities of test compounds and cyclothiazide solutions are determined by subtracting the second from the third reading (fluorescence due to addition of glutamate in the presence or absence of test compound or cyclothiazide) and are expressed relative to enhance fluorescence produced by 100 μM cyclothiazide.

T1 sequence (P48058 21-902): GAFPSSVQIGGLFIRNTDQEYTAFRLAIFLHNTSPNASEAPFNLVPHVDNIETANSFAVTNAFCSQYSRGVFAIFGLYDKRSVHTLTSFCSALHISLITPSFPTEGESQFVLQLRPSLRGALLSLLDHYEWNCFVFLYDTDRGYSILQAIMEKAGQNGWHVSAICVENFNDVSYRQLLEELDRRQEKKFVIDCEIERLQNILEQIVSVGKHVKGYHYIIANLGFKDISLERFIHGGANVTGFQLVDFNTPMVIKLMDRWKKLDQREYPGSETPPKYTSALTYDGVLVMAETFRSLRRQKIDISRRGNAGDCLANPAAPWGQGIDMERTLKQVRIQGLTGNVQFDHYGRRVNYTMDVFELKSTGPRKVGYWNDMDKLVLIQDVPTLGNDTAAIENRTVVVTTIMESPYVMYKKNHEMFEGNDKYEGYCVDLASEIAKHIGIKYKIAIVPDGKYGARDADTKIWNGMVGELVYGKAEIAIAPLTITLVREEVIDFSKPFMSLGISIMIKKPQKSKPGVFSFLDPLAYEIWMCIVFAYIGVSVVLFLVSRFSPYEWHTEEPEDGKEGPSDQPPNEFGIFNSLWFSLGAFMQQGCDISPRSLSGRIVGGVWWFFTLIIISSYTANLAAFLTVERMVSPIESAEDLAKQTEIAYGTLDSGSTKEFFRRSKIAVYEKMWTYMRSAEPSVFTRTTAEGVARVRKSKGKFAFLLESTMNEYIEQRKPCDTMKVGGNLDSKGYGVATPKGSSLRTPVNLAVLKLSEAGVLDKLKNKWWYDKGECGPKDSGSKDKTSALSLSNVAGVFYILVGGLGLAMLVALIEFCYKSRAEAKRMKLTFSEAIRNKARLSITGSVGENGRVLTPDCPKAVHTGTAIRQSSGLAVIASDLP

Regarding `NS(=O)(=O)c1cc2c(cc1Cl)NC(C1CC3C=CC1C3)NS2(=O)=O` (stereo not shown) [cyclothiazide], the “potentiation of agonist-induced excitability” value was “potentiate agonist-induced excitability”.
